Consider three compounds from ChEMBL document CHEMBL5325426, “Structure-based discovery of potent USP28 inhibitors derived from Vismodegib” (Eur J Med Chem, 2023).

Structures are written as SMILES. Active and inactive are the calls of the source. The rule behind the calls is not given here.

For assay [1], the target named is T1, Ubiquitin carboxyl-terminal hydrolase 25 (Homo sapiens) (UniProt Q9UHP3).
T1 sequence (whole entry): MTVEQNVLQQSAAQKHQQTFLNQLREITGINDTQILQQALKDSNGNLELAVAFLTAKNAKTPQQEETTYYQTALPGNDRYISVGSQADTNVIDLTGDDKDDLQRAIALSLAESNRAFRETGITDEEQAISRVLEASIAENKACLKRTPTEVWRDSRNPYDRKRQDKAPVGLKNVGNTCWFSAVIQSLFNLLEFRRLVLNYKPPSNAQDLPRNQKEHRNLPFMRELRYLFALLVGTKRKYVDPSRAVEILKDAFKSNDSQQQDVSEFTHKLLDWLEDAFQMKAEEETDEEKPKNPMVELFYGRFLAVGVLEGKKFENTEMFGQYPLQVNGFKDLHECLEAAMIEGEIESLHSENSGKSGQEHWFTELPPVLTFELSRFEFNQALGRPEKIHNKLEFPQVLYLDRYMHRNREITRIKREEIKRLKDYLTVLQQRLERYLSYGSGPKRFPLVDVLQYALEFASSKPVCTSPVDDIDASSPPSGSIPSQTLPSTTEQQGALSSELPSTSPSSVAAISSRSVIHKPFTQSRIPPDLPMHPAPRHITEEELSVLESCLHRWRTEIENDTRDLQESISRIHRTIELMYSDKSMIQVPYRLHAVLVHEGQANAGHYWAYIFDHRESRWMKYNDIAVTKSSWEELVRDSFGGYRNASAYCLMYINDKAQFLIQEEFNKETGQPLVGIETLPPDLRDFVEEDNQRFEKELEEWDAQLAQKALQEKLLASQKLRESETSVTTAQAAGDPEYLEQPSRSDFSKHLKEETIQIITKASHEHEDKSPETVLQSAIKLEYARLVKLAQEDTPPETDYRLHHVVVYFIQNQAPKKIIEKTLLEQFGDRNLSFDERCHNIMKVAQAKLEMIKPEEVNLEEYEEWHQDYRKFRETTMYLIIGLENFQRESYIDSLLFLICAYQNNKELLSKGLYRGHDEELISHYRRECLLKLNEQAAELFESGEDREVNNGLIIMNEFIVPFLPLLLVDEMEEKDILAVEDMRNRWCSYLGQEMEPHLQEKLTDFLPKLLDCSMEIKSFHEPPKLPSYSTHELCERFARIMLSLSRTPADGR
In words: Inhibition of USP25 in human LS174T cells assessed as downregulation of Tankyrase 1/2 protein level. Format: cell-based.

Assay [2] concerns the target T2, Ubiquitin carboxyl-terminal hydrolase isozyme L5 (Homo sapiens) (UniProt Q9Y5K5).
T2 sequence (whole entry): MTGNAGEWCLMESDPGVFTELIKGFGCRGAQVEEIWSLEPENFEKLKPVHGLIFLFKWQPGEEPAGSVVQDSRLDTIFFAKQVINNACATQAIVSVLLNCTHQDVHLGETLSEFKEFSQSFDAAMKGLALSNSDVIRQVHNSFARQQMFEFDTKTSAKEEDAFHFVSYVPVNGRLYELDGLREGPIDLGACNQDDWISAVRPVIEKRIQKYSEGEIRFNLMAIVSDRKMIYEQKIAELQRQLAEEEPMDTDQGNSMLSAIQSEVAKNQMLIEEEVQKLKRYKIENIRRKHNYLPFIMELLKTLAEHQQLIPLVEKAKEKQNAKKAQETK
In words: Inhibition of UCHL5 (1 to 228 residues) (unknown origin) expressed in Escherichia coli BL21 (DE3) using Ub-AMC as substrate at 5 uM by fluorescence based analysis.

Assay [3] relates to LS174T. In words: Inhibition of colony formation in human LS174T cells at 12.5 uM by crystal violet staining assay. Format: functional, cell-based.
The test system of assay [4] is HCT-116. In words: Antiproliferative activity against human HCT-116 cells assessed as effect on Bcl-2 protein level at 30 to 100 uM incubated for 1 day by western blotting analysis. Format: functional, cell-based. The following applies: dose 30-100 µM. In general terms: Immunoblotting shows a protein as a band on a membrane.
For assay [5], the system named is HCT-116. In words: Inhibition of colony formation in human HCT-116 cells at 15 uM by crystal violet staining assay. Format: functional, cell-based.
Assay [6] concerns LS174T. In words: Inhibition of colony formation in human LS174T cells at 10 uM by crystal violet staining assay. Format: functional, cell-based.
Assay [7] has as its system HCT-116. In words: Antiproliferative activity against human HCT-116 cells assessed as effect on Bcl-2 protein level at 30 to 80 uM incubated for 1 day by western blotting analysis. Format: functional, cell-based. The following applies: dose 30-80 µM.
The test system of assay [8] is HCT-116. In words: Inhibition of colony formation in human HCT-116 cells at 17.5 uM by crystal violet staining assay. Format: functional, cell-based.
The test system of assay [9] is LS174T. In words: Inhibition of colony formation in human LS174T cells at 15 uM by crystal violet staining assay. Format: functional, cell-based.

Consider `CS(=O)(=O)c1ccc(C(=O)Nc2ccc(Cl)c(-c3ccc4c(c3)CNC4)c2)c(Cl)c1`, for which the inhibition result (in assay [1]; in [2]; with LS174T [3]; in the assay on HCT-116 [5]) was “Active” throughout. The result in the assay on HCT-116 [4] was inactive.

In the case of `CS(=O)(=O)c1ccc(C(=O)Nc2ccc(Cl)c(-c3ccc4c(c3)CCNC4)c2)c(Cl)c1`, the inhibition result (in assay [2]; in the assay with LS174T [6]; in the assay with HCT-116 [5]) was “Active” throughout. Also, the result with HCT-116 [4] was inactive.

On to `CS(=O)(=O)c1ccc(C(=O)Nc2ccc(Cl)c(-c3ccc(C4(N)CC4)cc3)c2)c(Cl)c1`, for which the outcome with HCT-116 [7] was inactive. Also, the inhibition result (in assay [2]; with HCT-116 [8]; in the assay on LS174T [9]) was “Active” throughout.
